“And” between values parts separate entries of the source, which are not always exact repeats. Identical values can stand only once. Like-named read-outs stand apart in the source and are kept apart here.
Experiments:
[1] = tested on: HIV-1HXB2 WT and Env gp120 mutated pseudoviruses; assay: microbe, parasite or virus in culture; format: cell-based; conditions: Human immunodeficiency virus 1, U87.CD4.CXCR4
Aqueous solubility = format: physicochemical; conditions: universal aqueous buffer
VSV-G = format: cell-based; conditions: U87-CD4-CXCR4 cells
Plasma protein binding = format: in vitro ADME
[2] = Metabolic stability in human liver microsomes; conditions: 3 μM
TZM-bl cells = assay: Cytotoxicity in TZM-bl cells; format: cell-based; conditions: read-out: Toxicity CC50 (TZM-bl)
MT-2 cells = assay: Cytotoxicity in MT-2 cells; format: cell-based; conditions: read-out: Toxicity CC50 (MT-2)
HIV-1HXB2 = format: cell-based
HIV-1IIIB = assay: Multi-cycle infection assay in MT-2 cells
[3] = Cytotoxicity in TZM-bl cells; format: cell-based; conditions: human
[4] = Cytotoxicity in U87-CD4-CXCR4 cells; format: cell-based; conditions: human
[5] = tested on: HIV-1 mediated cell-cell fusion; assay: HIV-1 mediated cell-cell fusion inhibition assay; format: cell-based; conditions: HL2/3 effector and TZM-bl target cells
hERG potassium channel = hERG potassium channel (Homo sapiens, UniProt Q12809); assay: hERG channel inhibition, whole-cell patch clamp in HEK293 cells; format: cell-based; conditions: HEK293 cells stably transfected with hERG cDNA
[6] = pH 7.4, Solubility Range when prepared at 500 μM, With 5% DMSO, pH7.4 (first line)
[7] = pH 7.4, aqueous solubility, DMSO concentration of 2%
[8] = read-out: HIV-1IIIB IC50, MT-2 cells, multi-cycle, mean ± SD, n=3

hERG potassium channel, sequence (Q12809 whole entry): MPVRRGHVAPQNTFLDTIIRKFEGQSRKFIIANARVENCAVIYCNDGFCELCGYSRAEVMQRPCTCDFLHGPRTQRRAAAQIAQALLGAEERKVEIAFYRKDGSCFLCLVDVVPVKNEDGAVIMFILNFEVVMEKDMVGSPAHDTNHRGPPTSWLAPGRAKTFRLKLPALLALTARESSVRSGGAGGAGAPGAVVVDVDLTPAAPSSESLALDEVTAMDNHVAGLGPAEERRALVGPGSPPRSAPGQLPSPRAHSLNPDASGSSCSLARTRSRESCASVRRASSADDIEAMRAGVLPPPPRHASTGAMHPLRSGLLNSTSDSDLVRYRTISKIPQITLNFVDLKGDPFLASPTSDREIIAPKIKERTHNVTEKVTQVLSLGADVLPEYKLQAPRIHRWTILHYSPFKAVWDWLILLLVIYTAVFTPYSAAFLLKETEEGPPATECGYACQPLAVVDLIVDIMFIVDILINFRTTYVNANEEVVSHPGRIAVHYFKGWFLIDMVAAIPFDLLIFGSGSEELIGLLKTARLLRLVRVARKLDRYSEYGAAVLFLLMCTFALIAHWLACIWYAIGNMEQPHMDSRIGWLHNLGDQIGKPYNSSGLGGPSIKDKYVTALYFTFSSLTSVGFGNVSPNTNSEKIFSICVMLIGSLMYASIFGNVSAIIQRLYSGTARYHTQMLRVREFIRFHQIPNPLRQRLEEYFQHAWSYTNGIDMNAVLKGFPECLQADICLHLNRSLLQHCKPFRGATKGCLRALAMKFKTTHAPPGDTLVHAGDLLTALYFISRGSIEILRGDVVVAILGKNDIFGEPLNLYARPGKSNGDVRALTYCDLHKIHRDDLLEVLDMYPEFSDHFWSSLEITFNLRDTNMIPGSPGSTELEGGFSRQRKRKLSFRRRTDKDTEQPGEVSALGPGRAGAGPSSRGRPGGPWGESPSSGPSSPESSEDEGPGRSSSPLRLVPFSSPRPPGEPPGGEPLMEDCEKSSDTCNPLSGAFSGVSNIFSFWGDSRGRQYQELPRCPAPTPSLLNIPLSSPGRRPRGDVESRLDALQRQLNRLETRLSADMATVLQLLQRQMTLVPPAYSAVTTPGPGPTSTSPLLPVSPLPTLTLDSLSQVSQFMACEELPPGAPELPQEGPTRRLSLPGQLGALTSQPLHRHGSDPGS

COc1cnc(-n2cnc(C)n2)c2[nH]cc(C(=O)C(=O)N3CCN(C(=O)c4ccccc4)CC3)c12 [BMS-626529, reference compound]
IC50 [1]: ~8 nM | solubility at 90 min (Aqueous solubility; [6]): 100 µM to 500 µM and 47.3 µg/mL to 237 µg/mL

NCC(NC(=O)c1ccc(-c2ccc(C(F)(F)F)c(F)c2)[nH]1)c1nc(CO)cs1 (centres unmarked) [Compound 55, N-(2-Amino-1-(4-(hydroxymethyl)thiazol-2-yl)ethyl)-5-(3-fluoro-4-(trifluoromethyl)-phenyl)-1H-pyrrole-2-carboxamide]
Control VSV-G IC50 (VSV-G): poorly active | solubility at 90 min (Aqueous solubility; [6]): 100 µM to 500 µM and 42.4 µg/mL to 214 µg/mL | solubility at 90 min (Aqueous solubility; [7]): 100 to 500 µM | bound to proteins in human plasma (Plasma protein binding): > 99% | parent compound remaining at 120 min (% of 0 min) [2]: 88.5 to 90.4%

N-(2-Amino-1-(5-(hydroxymethyl)thiazol-2-yl)ethyl)-5-(3,5-difluoro-4-(trifluoromethyl)-phenyl)-1H-pyrrole-2-carboxamide [Compound 58]
CC50 (TZM-bl cells): 23.5 ± 0.5 µM | CC50 (MT-2 cells): 15.5 ± 0.45 µM

N-(2-Amino-1-(5-(hydroxymethyl)oxazol-2-yl)ethyl)-5-(4-chloro-3,5-difluorophenyl)-1H-pyrrole-2-carboxamide [Compound 66]
IC50 (HIV-1HXB2; read-out: HIV-1HXB2 IC50, TZM-bl cells, single-cycle, mean ± SD, n=3): 760 ± 100 nM | CC50 (TZM-bl cells): 30.9 ± 1.7 µM | CC50 (MT-2 cells): 44.7 ± 1.5 µM | IC50 (HIV-1IIIB; [8]): 900 ± 100 nM

CNC[C@H](NC(=O)c1ccc(-c2ccc(C(F)(F)F)cc2)[nH]1)c1nc(CO)cs1 [Compound 51, N-(1-(4-(Hydroxymethyl)thiazol-2-yl)-2-(methylamino)ethyl)-5-(4-(trifluoromethyl)phenyl)-1H-pyrrole-2-carboxamide]
IC50 (HIV-1IIIB; Human immunodeficiency virus 1, MT2, read-out: HIV-1IIIB IC50): 100 nM

N-(2-Amino-1-(5-(hydroxymethyl)thiazol-2-yl)ethyl)-5-(3,5-difluoro-4-(trifluoromethyl)-phenyl)-1H-pyrrole-2-carboxamide [Compound 57]
CC50 (TZM-bl cells): 23 ± 0.6 µM | CC50 (MT-2 cells): 14.3 ± 0.6 µM

NC[C@@H](NC(=O)c1ccc(-c2ccc(C(F)(F)F)cc2)[nH]1)c1ncc(CO)s1 [Compound 48, N-(2-Amino-1-(5-(hydroxymethyl)thiazol-2-yl)ethyl)-5-(4-(trifluoromethyl)phenyl)-1H-pyrrole-2-carboxamide]
CC50 at 72 h [3]: 42.4 ± 1 µM | Control VSV-G IC50 (VSV-G): poorly active | CC50 at 3 days [4]: 46.4 ± 4.7 µM | IC50 HIV-1 mediated cell-cell fusion [5]: active at slightly higher concentration than NBD-556 and 55

NCC(NC(=O)c1ccc(-c2cc(F)c(Cl)c(F)c2)[nH]1)c1nc(CO)cs1 (centres unmarked) [Compound 39, N-(2-Amino-1-(4-(hydroxymethyl)thiazol-2-yl)ethyl)-5-(4-chloro-3,5-difluorophenyl)-1H-pyrrole-2-carboxamide]
Control VSV-G IC50 (VSV-G): poorly active | CC50 at 3 days [4]: 39.3 ± 2.3 µM | IC50 HIV-1 mediated cell-cell fusion [5]: active at slightly higher concentration than NBD-556 and 55 | solubility at 90 min (Aqueous solubility; [6]): ~206 µg/mL | solubility at 90 min (Aqueous solubility; [7]): 100 to 500 µM | bound to proteins in human plasma (Plasma protein binding): > 99% | parent compound remaining at 120 min (% of 0 min) [2]: 88.5 to 90.4%

NC[C@H](NC(=O)c1ccc(-c2ccc(C(F)(F)F)cc2)[nH]1)c1nc(CO)cs1 [Compound 49, N-(2-Amino-1-(4-(hydroxymethyl)thiazol-2-yl)ethyl)-5-(4-(trifluoromethyl)phenyl)-1H-pyrrole-2-carboxamide]
fold enhancement in antiviral potency (IC50) after CH2OH switch C5 to C4 (HIV-1HXB2; HIV-1HXB2 in TZM-bl cells, 39 vs NBD-14107, 49 vs 47, 55 vs 53): ~ 3.4 fold

N-(2-Amino-1-(5-(hydroxymethyl)oxazol-2-yl)ethyl)-5-(4-chloro-3,5-difluorophenyl)-1H-pyrrole-2-carboxamide [Compound 67]
CC50 (TZM-bl cells): 27.7 ± 0.5 µM | CC50 (MT-2 cells): 26.5 ± 2 µM | IC50 (HIV-1IIIB; [8]): 800 ± 100 nM

COc1cc(N)c(Cl)cc1C(=O)NC1CCN(CCCOc2ccc(F)cc2)CC1OC (centres unmarked) [Cisapride]
inhibition at 0.09 µM (hERG potassium channel): 85.2 ± 2.3%

Source: PMC5993640 (European journal of medicinal chemistry, 2018)
